Values of other authors, collected in patent EP4756025A1, “DSRNA TARGETING MAPT AND PHARMACEUTICAL USE THEREOF” (Tuojie Biotech (Shanghai) Co., Ltd., priority 2023, dated 2025).

Conditions: octanol-water partition coefficient, example in the definition of lipophilic moiety

logKow	SMILES
about 0.7	NCCCCCCO [6-aminohexanol]
10.7	CC(C)CCC[C@@H](C)[C@H]1CC[C@H]2[C@@H]3CC=C4C[C@@H](OC(=O)NCCCCCCO)CC[C@]4(C)[C@H]3CC[C@]12C [cholesteryl N-(hexan-6-ol)carbamate]
